Data from patent publication US11420947B2, “(S)-n-hydroxy-2-(2-(4-methoxyphenyl)butanamido)thiazole-5-carboxamide and pharmaceutically acceptable salts thereof” (TRANSLATIONAL DRUG DEVELOPMENT, LLC, priority 2018, dated 2022).

Columns and labels:
Assay in all cases: CellTiter-Glo cell viability assay
Type in all cases: cell-based
[1] = tested on: A204; conditions: Homo sapiens; A204, RHABDOMYOSARCOMA, Muscle, 72 hours
Description: (§1) Cell viability in the presence of varying concentrations of the above listed compounds at different time points was used to assess cytotoxicity and the effect of the compounds on cell proliferation.
(§2) Cell viability was measured by the CellTiter-Glo® cell viability assay from Promega (Madison, Wis.). The CellTiter-Glo® Luminescent Cell Viability Assay is a homogeneous method to determine the number of viable cells in culture based on quantitation of the ATP present, which signals the presence of metabolically active cells. Following treatment, CellTiter-Glo® is added to treatment wells and incubated at 37° C. luminescence values were measured at using a Molecular Devices Spectramax microplate reader
(§3) Cells were grown to 70% confluency, trypsinized, counted, and seeded in 96 well flat-bottom plates at a final concentration of 2.5×10^3-5×10^3 cells/well (Day 0). Cells were allowed to incubate in growth media for 24 hours. Treatment with the test agents or standard agents began on Day 1 and continued for 72 hours. At the 72-hour timepoint, treatment containing media was removed. Viable cell numbers are quantified by the CellTiter-Glo® cell viability assay as described above. Results from these studies were used to calculate an IC50 value (concentration of drug that inhibits cell growth by 50 percent of control) for each compound.
(§4) For single agent and combination studies, data from each experiment was collected and expressed as % Cell Growth using the following calculation: % Cell Growth=(ftest/fvehicle)×100
(§5) Where test is the fluorescence of the tested sample, and fvehicle is the fluorescence of the vehicle in which the drug is dissolved. Dose response graphs and IC50 values were generated using Prism 6 software (GraphPad) using the following equation: Y=(Top-Bottom)/(1+10^((logIC^50^-X)-HillSlope))

[2] = tested on: A498; conditions: Homo sapiens; A498, RENAL, RCC-VHL mut, 72 hours
Description: as §1, §2, §3, §4, §5

[3] = tested on: ACHN; conditions: Homo sapiens; ACHN, RENAL, RCC, 72 hours
Description: as §1, §2, §3, §4, §5

[4] = tested on: BT-20; conditions: Homo sapiens; BT-20, BREAST, Carcinoma, 72 hours
Description: as §1, §2, §3, §4, §5

[5] = tested on: BT474; conditions: Homo sapiens, BT-474; BT474, BREAST, Ductal Carcinoma, 72 hours
Description: as §1, §2, §3, §4, §5

[6] = tested on: BxPC-3; conditions: Homo sapiens; BxPC-3, PANCREAS, Pancreatic, 72 hours
Description: as §1, §2, §3, §4, §5

[7] = tested on: Cal-27; conditions: Homo sapiens; Cal-27, H&N SQUAMOUS CELL, Tongue, 72 hours
Description: as §1, §2, §3, §4, §5

[8] = tested on: DOHH-2; conditions: Homo sapiens; DOHH-2, HEMATOPIETIC, Lymphoma, 72 hours
Description: as §1, §2, §3, §4, §5

[9] = tested on: FaDu; conditions: Homo sapiens; FaDu, H&N SQUAMOUS CELL, Pharynx, 72 hours
Description: as §1, §2, §3, §4, §5

[10] = tested on: H660; conditions: NCI-H660; H660, PROSTATE, LN Met, 72 hours
Description: as §1, §2, §3, §4, §5

[11] = tested on: HCC1806; conditions: Homo sapiens; HCC1806, BREAST, acantholytic squamous cell carcinoma, 72 hours
Description: as §1, §2, §3, §4, §5

[12] = tested on: Hec-1A; conditions: Homo sapiens; Hec-1A, ENDOMETRIAL, 72 hours
Description: as §1, §2, §3, §4, §5

[13] = tested on: Hs695T; conditions: Homo sapiens, Hs 695T; Hs695T, MELANOMA, LN Met, 72 hours
Description: as §1, §2, §3, §4, §5

[14] = tested on: KLE; conditions: Homo sapiens; KLE, ENDOMETRIAL, 72 hours
Description: as §1, §2, §3, §4, §5

[15] = tested on: KMM-1; conditions: KMM-1, HEMATOPIETIC, MM, 72 hours
Description: as §1, §2, §3, §4, §5

[16] = tested on: KMS-34; conditions: KMS-34, HEMATOPIETIC, MM, 72 hours
Description: as §1, §2, §3, §4, §5

[17] = tested on: LK-2; conditions: Homo sapiens; LK-2, LUNG, Carcinoma, 72 hours
Description: as §1, §2, §3, §4, §5

[18] = tested on: MDA-MB-468; conditions: Homo sapiens; MDA-MB-468, BREAST, TNBC, 72 hours
Description: as §1, §2, §3, §4, §5

[19] = tested on: MOLP-8; conditions: Homo sapiens; MOLP-8, HEMATOPIETIC, MM, 72 hours
Description: as §1, §2, §3, §4, §5

[20] = tested on: MV411; conditions: Homo sapiens, MV4-11; MV411, HEMATOPIETIC, AML, 72 hours
Description: as §1, §2, §3, §4, §5

[21] = tested on: N87; conditions: N87, GASTRIC, Carcinoma, 72 hours
Description: as §1, §2, §3, §4, §5

[22] = tested on: NCI-H209; conditions: Homo sapiens; NCI-H209, LUNG, Carcinoma, 72 hours
Description: as §1, §2, §3, §4, §5

[23] = tested on: NCI-H226; conditions: Homo sapiens; NCI-H226, LUNG, Mesothelioma, 72 hours
Description: as §1, §2, §3, §4, §5

[24] = tested on: SUM149PT; conditions: Homo sapiens; SUM149PT, BREAST, IBC, 72 hours
Description: as §1, §2, §3, §4, §5

[25] = tested on: SiHa; conditions: Homo sapiens; SiHa, CERVICAL-SQUAMOUS CELL, 72 hours
Description: as §1, §2, §3, §4, §5

## CCC(C(=O)Nc1ncc(C(=O)NO)s1)c1ccc(OC)cc1 (racemic) [#1, N-hydroxy-2-(2-(4-methoxyphenyl)butanamido)thiazole-5-carboxamide]
[1]
  IC50: 33 nM
[2]
  IC50: 63 nM
[3]
  IC50: 229 nM
[4]
  IC50: 236 nM
[5]
  IC50: 1000 nM
[6]
  IC50: 251 nM
[7]
  IC50: 215 nM
[8]
  IC50: 16 nM
[9]
  IC50: 10 nM
[10]
  IC50: 158 nM
[11]
  IC50: 179 nM
[12]
  IC50: 56 nM
[13]
  IC50: 372 nM
[14]
  IC50: 215 nM
[15]
  IC50: 20 nM
[16]
  IC50: 15 nM
[17]
  IC50: 196 nM
[18]
  IC50: 68 nM
[19]
  IC50: 13 nM
[20]
  IC50: 7 nM
[21]
  IC50: 120 nM
[22]
  IC50: 110 nM
[23]
  IC50: 479 nM
[24]
  IC50: 191 nM
[25]
  IC50: 311 nM
